Assay results taken from US20020051828A1, “Mixtures which can be isolated from eugenia jambolana lamarck seeds, their preparation and the use of these mixtures and some of their constituents as medicaments” (priority 1996, published 2002).

Experiments:
[1] = system: normal mice with post-prandial hyperglycaemia; experiment: glycaemia of normal mice with post-prandial hyperglycaemia; type: in vivo, Swiss albino mice; conditions: 0.5 mg/mouse by gastric intubation; for GLYCAEMIA AT T0: T0, before administration; for GLYCAEMIA AT T60: T60, one hour after administration; for % inhibition: glycaemia T60 versus T0
Experimental: (§1) The hypoglycaemic activity of the mixtures I and II, of sodium oxamate and of the compounds of formula (I) have been determined in mice made diabetic with streptozocin and in normal mice with post-prandial hyperglycaemia according to the following procedures:
II—Normal Mice with Post-prandial Hyperglycaemia
Swiss albino mice weighing between 22 and 25 g are made to have post-prandial hyperglycaemia by the following procedure:
food in excess for 1 hour
The glycaemia is measured at the end of the last two hours of fasting, which constitutes the glycaemia at time T0. The mice are then divided into homogeneous batches according to the measured glycaemias. The products to be evaluated are administered without delay by gastric intubation in 0.4 ml of distilled water. The control batch receives the excipient (0.4 ml of distilled water). After one hour, the final glycaemias are measured which constitute the glycaemia at time T60.

[2] = system: mice made diabetic with streptozotocin; experiment: glycaemia of mice made diabetic with streptozotocin; type: in vivo, Swiss albino mice; conditions: for GLYCAEMIA AT D5 / % change in glycaemia: 0.5 mg/mouse/day by gastric intubation for 4 days; for GLYCAEMIA AT D5: D5, after 4 h fasting; for % change in glycaemia: glycaemia D5 versus D1; for GLYCAEMIA AT D1: 0.5 mg/mouse/day by gastric intubation, D1, start of treatment, after 4 h fasting
Experimental: as §1
I—Mice Made Diabetic with Streptozotocin
Swiss albino mice weighing between 22 and 25 g are made diabetic with streptozotocin administered by intraperitoneal injection at a dose of 210 or 265 mg/Kg of mouse, diluted in a citrate buffer at a concentration such that each mouse receives 0.2 ml of the solution on day 1 (D1). 3 to 4 days later, a check is made on 2 to 3 mice to see if the diabetes is established (glycaemia greater than 7.2 mmol/liter (130 mg per 100 ml). The glycaemia is then measured after starving for 4 hours. If the mice have become diabetic, they are divided into batches of 5 to 7 mice. Each of the batches receives, from D1 and daily, a selected dose of product. The administration is made once a day and at a fixed time, by gastric intubation and in a volume of 0.4 ml of distilled water as vehicle. Two batches of controls are made up:
one batch of untreated diabetic mice
These two batches of controls receive 0.4 ml of vehicle by gastric intubation and simultaneously with the treated mice.
The treatment lasts for 4 days. On the 5th day (D5), there is no administration of product. After fasting for 4 hours, the final glycaemias are measured.

[3] = oral toxicity (LD50) in mice; conditions: mouse, in vivo, orally in mice
Experimental: The mixtures according to the invention, the sodium oxamate and the compounds of formula (I) have a low toxicity. Their LD50 is greater than 2000 mg/kg orally in mice.

SMILES	GLYCAEMIA AT T0 [1]	GLYCAEMIA AT T60 [1]	% inhibition [1]	GLYCAEMIA AT D5 [2]	% change in glycaemia [2]	GLYCAEMIA AT D1 [2]	LD50 [3]
OCC(O)C(O)C(O)c1cnc(C(O)C(O)C(O)CO)cn1 (stereo not shown) [2,5-di(tetrahydroxybutyl)pyrazine, 2,5-di-(tetrahydroxybutyl)pyrazine]	136.25 mg/100 ml	102.41 mg/100 ml	−24.83%				
OCC(O)C(O)Cc1cnc(C(O)C(O)C(O)CO)cn1 (stereo not shown) [2-(tetrahydroxybutyl)-5-(2′,3′,4′-trihydroxybutyl)pyrazine]	128.75 mg/100 ml	90.50 mg/100 ml	−29.70%	164.50 mg/100 ml	−45.93%	304.25 mg/100 ml	
NC(=O)C(=O)[O-].[Na+] [Sodium oxamate, sodium oxamate]	136.46 mg/100 ml	102.93 mg/100 ml	−24.57%	89.90 mg/100 ml	−41.46%	153.40 mg/100 ml	> 2000 mg/kg
